The values below are quoted from earlier work in US20060147566A1, “Use of physiologically active fatty acids” (priority 2004, published 2006).

This data set has as its system pruritus. The settings on record: known from clinical studies; acyl salicylate prior art.

Structures are written as SMILES.

With `CC(=O)Oc1ccccc1C(=O)O` [aspirin], the “significance for the treatment of pruritus” value is reported as “about 50%”.
